Measurements as given in patent US11926613B2, “Kinase inhibitors for the treatment of central and peripheral nervous system disorders” (UNIVERSITY OF MIAMI, priority 2017, dated 2024).

Tests used:
[1] = system: neurons from hippocampi of E18 rat embryos; assay: Neurite growth length (% NTL) in cultured E18 rat hippocampal neurons, 9-point dose response, 48 hours; format: cell-based; conditions: Rattus norvegicus, Neuron, 48 h; for activity at 0.078 µM: 78 nM; for activity at 0.156 µM: 156 nM; for activity at 0.312 µM: 312 nM; for activity at 0.625 µM: 625 nM
Outline: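 % NTL comes from automated neurite tracing of βIII-tubulin-stained cells, with 200–300 or more neurons per condition. Compounds were given in a 9-point dilution series (20 μM to 0.078125 μM) for 48 h. Cells were trypsin-dissociated E18 rat hippocampal neurons plated at 1500/well on poly-D-lysine.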

[2] = system: Primary Neurons; assay: HCS neurite outgrowth assay (High Content Screening with Primary Neurons); format: cell-based; conditions: Primary neuron

For `COc1ccc(O)c(C(=O)c2ccc(C(=O)N[C@@H]3CNC[C@H]3NC(=O)c3ccc4c(cnn4C)c3)cc2)c1F` [Example A53, N-[(3R,4R)-4-[4-(2-fluoro-6-hydroxy-3-methoxybenzoyl)benzamido]pyrrolidin-3-yl]-1-methyl-1H-indazole-5-carboxamide], the activity at 0.078 µM [1] was 90%, the activity at 0.156 µM [1] was 82.5% and the activity at 0.312 µM [1] was 79.3%. It also gave an activity at 0.625 µM [1] of 76.3%, an activity at 1.25 µM [1] of 85.8% and an activity at 2.5 µM [1] of 88.5%. For the same compound, the activity at 5 µM [1] was 90.1%, the activity at 10 µM [1] was 91.9% and the activity at 20 µM [1] was 70%. For the same compound, the EC50 [2] was 0.814 µM.
`COc1ccc(O)c(C(=O)c2ccc(C(=O)N[C@@H]3CNC[C@H]3NC(=O)c3ccnc(N)c3)cc2)c1F` [Example A54, 2-amino-N-[(3R,4R)-4-[4-(2-fluoro-6-hydroxy-3-methoxybenzoyl)benzamido]pyrrolidin-3-yl]pyridine-4-carboxamide] was tested, and the activity at 0.078 µM [1] was 83.1%, the activity at 0.156 µM [1] was 79.9% and the activity at 0.312 µM [1] was 84.3%. The activity at 0.625 µM [1] was 84.1%, the activity at 1.25 µM [1] was 94.7% and the activity at 2.5 µM [1] was 105%. For the same compound, the activity at 5 µM [1] was 120%, the activity at 10 µM [1] was 151% and the activity at 20 µM [1] was 228%. For the same compound, the EC50 [2] was greater than 20 µM.
Compound `COc1ccc(O)c(C(=O)c2ccc(C(=O)N[C@@H]3CNC[C@H]3NC(=O)c3ccnc4[nH]ccc34)cc2)c1F` [Example A56, N-[(3R,4R)-4-[4-(2-fluoro-6-hydroxy-3-methoxybenzoyl)benzamido]pyrrolidin-3-yl]-1H-pyrrolo[2,3-b]pyridine-4-carboxamide] has an activity at 0.078 µM [1] of 128%, an activity at 0.156 µM [1] of 137% and an activity at 0.312 µM [1] of 131%. The activity at 0.625 µM [1] was 133%, the activity at 1.25 µM [1] was 165% and the activity at 2.5 µM [1] was 196%. It also gave an activity at 5 µM [1] of 267%, an activity at 10 µM [1] of 375% and an activity at 20 µM [1] of 488%. The EC50 [2] was 8.54 µM.
`COc1ccc(O)c(C(=O)c2ccc(C(=O)N[C@@H]3CNC[C@H]3NC(=O)c3ccc4cn[nH]c4c3)cc2)c1F` [Example A57, N-[(3R,4R)-4-[4-(2-fluoro-6-hydroxy-3-methoxybenzoyl)benzamido]pyrrolidin-3-yl]-1H-indazole-6-carboxamide] showed an activity at 0.078 µM [1] of 92.2%, an activity at 0.156 µM [1] of 97.8% and an activity at 0.312 µM [1] of 95.1%. For the same compound, the activity at 0.625 µM [1] was 93.9%, the activity at 1.25 µM [1] was 97.3% and the activity at 2.5 µM [1] was 93.5%. It also gave an activity at 5 µM [1] of 105%, an activity at 10 µM [1] of 107% and an activity at 20 µM [1] of 111%. The EC50 [2] was greater than 20 µM.
With `COc1ccc(O)c(C(=O)c2ccc(C(=O)N[C@@H]3CNC[C@H]3NC(=O)c3ccc4[nH]nnc4c3)cc2)c1F` [Example A58, N-[(3R,4R)-4-[4-(2-fluoro-6-hydroxy-3-methoxybenzoyl)benzamido]pyrrolidin-3-yl]-1H-1,2,3-benzotriazole-5-carboxamide] the activity at 0.078 µM [1] was 88.3%, the activity at 0.156 µM [1] was 87.6% and the activity at 0.312 µM [1] was 79.3%. The activity at 0.625 µM [1] was 75.7%, the activity at 1.25 µM [1] was 76.3% and the activity at 2.5 µM [1] was 84.8%. The activity at 5 µM [1] was 85.3%, the activity at 10 µM [1] was 89.5% and the activity at 20 µM [1] was 88.6%. The EC50 [2] was 5.27 µM.
Work on `COc1ccc(O)c(C(O)c2ccc(C(=O)N[C@@H]3CNC[C@H]3NC(=O)c3ccncc3)cc2)c1F` (stereo partly drawn) [Example A59, N-[(3R,4R)-4-{4-[(2-fluoro-6-hydroxy-3-methoxyphenyl)(hydroxy)methyl]benzamido}pyrrolidin-3-yl]pyridine-4-carboxamide] yielded an activity at 0.078 µM [1] of 91.9%, an activity at 0.156 µM [1] of 82.8% and an activity at 0.312 µM [1] of 73.6%. It also gave an activity at 0.625 µM [1] of 82.3%, an activity at 1.25 µM [1] of 76.7% and an activity at 2.5 µM [1] of 91.2%. For the same compound, the activity at 5 µM [1] was 95.4%, the activity at 10 µM [1] was 111% and the activity at 20 µM [1] was 106%. It also gave an EC50 [2] of 7.13 µM.
`Cc1cc(C(=O)N[C@@H]2CNC[C@H]2NC(=O)c2ccncc2)ccc1C(=O)c1ccccc1O` [Example A64, N-[(3R,4R)-4-[4-(2-hydroxybenzoyl)-3-methylbenzamido]pyrrolidin-3-yl]pyridine-4-carboxamide] showed an activity at 0.078 µM [1] of 91.3%, an activity at 0.156 µM [1] of 99.8% and an activity at 0.312 µM [1] of 107%. The activity at 0.625 µM [1] was 105%, the activity at 1.25 µM [1] was 116% and the activity at 2.5 µM [1] was 129%. It also gave an activity at 5 µM [1] of 124%, an activity at 10 µM [1] of 121% and an activity at 20 µM [1] of 126%. The EC50 [2] was 0.593 µM.
Compound `O=C(N[C@@H]1CNC[C@H]1NC(=O)c1ccc(C(=O)c2ccccc2O)cc1Cl)c1ccncc1` [Example A65, N-[(3R,4R)-4-[2-chloro-4-(2-hydroxybenzoyl)benzamido]pyrrolidin-3-yl]pyridine-4-carboxamide] has an activity at 0.078 µM [1] of 108%, an activity at 0.156 µM [1] of 117% and an activity at 0.312 µM [1] of 123%. It also gave an activity at 0.625 µM [1] of 113%, an activity at 1.25 µM [1] of 126% and an activity at 2.5 µM [1] of 129%. It also gave an activity at 5 µM [1] of 128%, an activity at 10 µM [1] of 150% and an activity at 20 µM [1] of 161%. It also gave an EC50 [2] of 7.11 µM.
`Nc1nccc(C(=O)N[C@@H]2CNC[C@H]2NC(=O)c2ccc(C(=O)c3ccccc3O)c(Cl)c2)n1` [Example A66, 2-amino-N-[(3R,4R)-4-[3-chloro-4-(2-hydroxybenzoyl)benzamido]pyrrolidin-3-yl]pyrimidine-4-carboxamide] showed an activity at 0.078 µM [1] of 113%, an activity at 0.156 µM [1] of 107% and an activity at 0.312 µM [1] of 122%. It also gave an activity at 0.625 µM [1] of 111%, an activity at 1.25 µM [1] of 122% and an activity at 2.5 µM [1] of 129%. For the same compound, the activity at 5 µM [1] was 129%, the activity at 10 µM [1] was 145% and the activity at 20 µM [1] was 161%. For the same compound, the EC50 [2] was 2.33 µM.
For `O=C(N[C@@H]1CNC[C@H]1NC(=O)c1ccc(C(=O)c2ccccc2O)c(Cl)c1)c1ccncc1` [Example A67, N-[(3R,4R)-4-[3-chloro-4-(2-hydroxybenzoyl)benzamido]pyrrolidin-3-yl]pyridine-4-carboxamide], the activity at 0.078 µM [1] was 94.2%, the activity at 0.156 µM [1] was 97.9% and the activity at 0.312 µM [1] was 104%. It also gave an activity at 0.625 µM [1] of 104%, an activity at 1.25 µM [1] of 112% and an activity at 2.5 µM [1] of 106%. For the same compound, the activity at 5 µM [1] was 108%, the activity at 10 µM [1] was 120% and the activity at 20 µM [1] was 128%. The EC50 [2] was greater than 20 µM.
Work on `COc1cc(C(=O)c2ccccc2O)ccc1C(=O)N[C@@H]1CNC[C@H]1NC(=O)c1ccnc(N)n1` [Example A68, 2-amino-N-[(3R,4R)-4-[4-(2-hydroxybenzoyl)-2-methoxybenzamido]pyrrolidin-3-yl]pyrimidine-4-carboxamide] yielded an activity at 0.078 µM [1] of 101%, an activity at 0.156 µM [1] of 95.7% and an activity at 0.312 µM [1] of 94.8%. The activity at 0.625 µM [1] was 91.2%, the activity at 1.25 µM [1] was 102% and the activity at 2.5 µM [1] was 101%. It also gave an activity at 5 µM [1] of 96.8%, an activity at 10 µM [1] of 102% and an activity at 20 µM [1] of 94.3%. For the same compound, the EC50 [2] was 1.24 µM.
`COc1cc(C(=O)c2ccccc2O)ccc1C(=O)N[C@@H]1CNC[C@H]1NC(=O)c1ccncc1` [Example A69, N-[(3R,4R)-4-[4-(2-hydroxybenzoyl)-2-methoxybenzamido]pyrrolidin-3-yl]pyridine-4-carboxamide] gave an activity at 0.078 µM [1] of 94.3%, an activity at 0.156 µM [1] of 96.2% and an activity at 0.312 µM [1] of 96%. The activity at 0.625 µM [1] was 107%, the activity at 1.25 µM [1] was 110% and the activity at 2.5 µM [1] was 112%. It also gave an activity at 5 µM [1] of 112%, an activity at 10 µM [1] of 119% and an activity at 20 µM [1] of 117%. It also gave an EC50 [2] of 0.401 µM.
